This is an account of results in US9926281B2 (priority 2014, dated 2018).

In one assay the target is human ADAMTS-5 (Homo sapiens (Human), UniProt Q9UNA0). Particulars: read-out: hADAMTS-5 potency IC50.
A further assay concerns the target human TACE (Homo sapiens (Human), UniProt P78536). Particulars: read-out: TACE potency IC50.

human TACE, sequence (P78536 whole entry, looked up, change not shown): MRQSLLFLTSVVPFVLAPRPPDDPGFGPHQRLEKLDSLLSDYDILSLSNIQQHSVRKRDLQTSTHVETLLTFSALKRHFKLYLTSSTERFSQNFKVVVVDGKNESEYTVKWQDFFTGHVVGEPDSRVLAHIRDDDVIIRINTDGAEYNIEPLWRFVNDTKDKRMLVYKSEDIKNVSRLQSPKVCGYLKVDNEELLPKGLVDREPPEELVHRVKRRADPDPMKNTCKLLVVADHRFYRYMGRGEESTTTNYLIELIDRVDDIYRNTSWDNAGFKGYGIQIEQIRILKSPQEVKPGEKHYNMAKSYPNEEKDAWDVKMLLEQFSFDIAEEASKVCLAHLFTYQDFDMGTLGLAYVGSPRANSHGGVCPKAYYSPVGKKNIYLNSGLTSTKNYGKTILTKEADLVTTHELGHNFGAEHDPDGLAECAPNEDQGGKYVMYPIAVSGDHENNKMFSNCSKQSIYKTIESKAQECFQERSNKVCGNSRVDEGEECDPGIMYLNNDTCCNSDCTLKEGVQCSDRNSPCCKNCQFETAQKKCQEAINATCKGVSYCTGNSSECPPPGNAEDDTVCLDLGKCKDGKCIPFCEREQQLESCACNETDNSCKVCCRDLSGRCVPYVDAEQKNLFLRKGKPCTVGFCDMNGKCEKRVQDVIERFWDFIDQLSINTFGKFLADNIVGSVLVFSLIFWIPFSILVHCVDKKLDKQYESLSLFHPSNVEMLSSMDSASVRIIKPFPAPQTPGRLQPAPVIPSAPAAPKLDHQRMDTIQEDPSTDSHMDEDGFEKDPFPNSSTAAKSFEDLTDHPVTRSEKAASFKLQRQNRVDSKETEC
human ADAMTS-5, sequence (Q9UNA0 262-930): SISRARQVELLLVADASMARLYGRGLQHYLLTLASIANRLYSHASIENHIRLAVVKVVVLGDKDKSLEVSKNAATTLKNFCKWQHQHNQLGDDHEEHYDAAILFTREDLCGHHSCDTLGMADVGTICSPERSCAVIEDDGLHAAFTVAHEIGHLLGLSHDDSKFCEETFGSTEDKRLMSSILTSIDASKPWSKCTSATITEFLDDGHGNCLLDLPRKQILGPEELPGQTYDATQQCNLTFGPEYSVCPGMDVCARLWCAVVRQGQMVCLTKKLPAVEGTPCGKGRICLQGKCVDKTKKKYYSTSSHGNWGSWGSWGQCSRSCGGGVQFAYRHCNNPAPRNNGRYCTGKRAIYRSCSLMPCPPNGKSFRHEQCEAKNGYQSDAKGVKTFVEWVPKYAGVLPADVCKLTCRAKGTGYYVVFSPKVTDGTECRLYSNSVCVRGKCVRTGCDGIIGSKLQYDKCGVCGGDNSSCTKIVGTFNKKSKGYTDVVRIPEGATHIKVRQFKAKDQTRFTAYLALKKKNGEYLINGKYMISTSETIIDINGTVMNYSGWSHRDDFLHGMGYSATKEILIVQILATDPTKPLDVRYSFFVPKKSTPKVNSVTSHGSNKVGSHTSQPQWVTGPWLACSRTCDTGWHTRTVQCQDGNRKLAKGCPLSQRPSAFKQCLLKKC
Method for human ADAMTS-5: Finally, the fluorescence is read on the Envision (Perkin Elmer) after an incubation of 90 min at 37° C.

As for `Cc1cccc(C2(CCC(=O)N3CCN(c4cc(Cl)cc(Cl)c4)[C@@H](C)C3)NC(=O)NC2=O)n1` (stereo partly drawn) [compound 310, 5-[3-[(3S)-4-(3,5-dichlorophenyl)-3-methyl-piperazin-1-yl]-3-oxo-propyl]-5-(6-methyl-2-pyridyl)imidazolidine-2,4-dione], the results for the half-maximal inhibitory concentration (IC50) at human ADAMTS-5 and on human TACE were 50 nM and 1320 nM, respectively.

Regarding `Cc1cccc(C2(CCC(=O)N3CCN(c4cccc(Cl)c4)[C@@H](C)C3)NC(=O)NC2=O)n1` (stereo partly drawn) [compound 311, 5-[3-[(3S)-4-(3-chlorophenyl)-3-methyl-piperazin-1-yl]-3-oxo-propyl]-5-(6-methyl-2-pyridyl)imidazolidine-2,4-dione], the IC50 (in general, the concentration that gives 50% inhibition) on human ADAMTS-5 was determined as 57 nM; on human TACE it was 3070 nM.

In the case of `Cc1cccc(C2(CCC(=O)N3CCN(c4ccc(Cl)cc4)[C@@H](C)C3)NC(=O)NC2=O)n1` (stereo partly drawn) [compound 312, 5-[3-[(3S)-4-(4-chlorophenyl)-3-methyl-piperazin-1-yl]-3-oxo-propyl]-5-(6-methyl-2-pyridyl)imidazolidine-2,4-dione], the IC50 at human ADAMTS-5 turned out to be 40 nM; at human TACE it was 3680 nM.

For `C[C@H]1CN(C(=O)CCC2(c3cccnc3)NC(=O)NC2=O)CCN1c1ccc(Cl)c(F)c1` (stereo partly drawn) [compound 315, 5-[3-[(3S)-4-(4-chloro-3-fluoro-phenyl)-3-methyl-piperazin-1-yl]-3-oxo-propyl]-5-(3-pyridyl)imidazolidine-2,4-dione], the IC50 was 42 nM at human ADAMTS-5 and greater than 4000 nM on human TACE.

Consider `C[C@H]1CN(C(=O)CCC2(c3cccnc3)NC(=O)NC2=O)CCN1c1cc(Cl)cc(Cl)c1` (stereo partly drawn) [compound 318, 5-[3-[(3S)-4-(3,5-dichlorophenyl)-3-methyl-piperazin-1-yl]-3-oxo-propyl]-5-(3-pyridyl)imidazolidine-2,4-dione], for which the IC50 was determined as 59 nM at human ADAMTS-5 and 2190 nM at human TACE.

In the case of `C[C@H]1CN(C(=O)CCC2(C3CC3)NC(=O)NC2=O)CCN1c1cccc(-c2cncc(Cl)c2)c1` (stereo partly drawn) [compound 322, 5-[3-[(3S)-4-[3-(5-chloro-3-pyridyl)phenyl]-3-methyl-piperazin-1-yl]-3-oxo-propyl]-5-cyclopropyl-imidazolidine-2,4-dione], the IC50 on human ADAMTS-5 was 237 nM; on human TACE, greater than 4000 nM.

As to `Cc1ncccc1-c1cccc(N2CCN(C(=O)CCC3(C4CC4)NC(=O)NC3=O)C[C@@H]2C)c1` (stereo partly drawn) [compound 323, 5-cyclopropyl-5-[3-[(3S)-3-methyl-4-[3-(2-methyl-3-pyridyl)phenyl]piperazin-1-yl]-3-oxo-propyl]imidazolidine-2,4-dione], the IC50 was 1240 nM at human ADAMTS-5 and greater than 4000 nM at human TACE.

`Cc1ccc(-c2cccc(N3CCN(C(=O)CCC4(C5CC5)NC(=O)NC4=O)C[C@@H]3C)c2)cn1` (stereo partly drawn) [compound 324, 5-cyclopropyl-5-[3-[(3S)-3-methyl-4-[3-(6-methyl-3-pyridyl)phenyl]piperazin-1-yl]-3-oxo-propyl]imidazolidine-2,4-dione]: the IC50 at human ADAMTS-5 was 407 nM; at human TACE, greater than 4000 nM.

Consider `C[C@H]1CN(C(=O)CCC2(C3CC3)NC(=O)NC2=O)CCN1c1cc(Cl)ccn1` (stereo partly drawn) [compound 325, 5-[3-[(3S)-4-(4-chloro-2-pyridyl)-3-methyl-piperazin-1-yl]-3-oxo-propyl]-5-cyclopropyl-imidazolidine-2,4-dione], for which the IC50 on human ADAMTS-5 is 796 nM; on human TACE, greater than 20000 nM.

As for `C[C@H]1CN(C(=O)CCC2(C3CC3)NC(=O)NC2=O)CCN1c1cccc2c1ccn2C` (stereo partly drawn) [compound 328, 5-cyclopropyl-5-[3-[(3S)-3-methyl-4-(1-methylindol-4-yl)piperazin-1-yl]-3-oxo-propyl]imidazolidine-2,4-dione], the values for the IC50 on human ADAMTS-5 and at human TACE were greater than 4000 nM and greater than 20000 nM, respectively.

For the molecule `Cc1cc(-c2cccc(N3CCN(C(=O)CCC4(C5CC5)NC(=O)NC4=O)C[C@@H]3C)c2)ccn1` (stereo partly drawn) [compound 329, 5-cyclopropyl-5-[3-[(3S)-3-methyl-4-[3-(2-methyl-4-pyridyl)phenyl]piperazin-1-yl]-3-oxo-propyl]imidazolidine-2,4-dione], the IC50 is 134 nM on human ADAMTS-5 and greater than 20000 nM on human TACE.

As to `C[C@H]1CN(C(=O)CCC2(C3CC3)NC(=O)NC2=O)CCN1c1cncc(C#N)c1` (stereo partly drawn) [compound 330, 5-[(2S)-4-[3-(4-cyclopropyl-2,5-dioxo-imidazolidin-4-yl)propanoyl]-2-methyl-piperazin-1-yl]pyridine-3-carbonitrile], the IC50 on human ADAMTS-5 was greater than 4000 nM; at human TACE it was greater than 20000 nM.

As to `C[C@H]1CN(C(=O)CCC2(C3CC3)NC(=O)NC2=O)CCN1c1cc(F)cc(C#N)c1` (stereo partly drawn) [compound 334, 3-[(2S)-4-[3-(4-cyclopropyl-2,5-dioxo-imidazolidin-4-yl)propanoyl]-2-methyl-piperazin-1-yl]-5-fluoro-benzonitrile], the IC50 at human ADAMTS-5 was 430 nM; at human TACE it was greater than 20000 nM.

For the molecule `COc1cccc(C2(CCC(=O)N3CCN(c4cc(F)cc(F)c4)[C@@H](C)C3)NC(=O)NC2=O)n1` (stereo partly drawn) [compound 336, 5-[3-[(3S)-4-(3,5-difluorophenyl)-3-methyl-piperazin-1-yl]-3-oxo-propyl]-5-(6-methoxy-2-pyridyl)imidazolidine-2,4-dione], the IC50 at human ADAMTS-5 was 74 nM; on human TACE, greater than 4000 nM.

Turning to `C[C@H]1CN(C(=O)CCC2(C3CC3)NC(=O)NC2=O)CCN1c1cnc2ccn(C)c2c1` (stereo partly drawn) [compound 337, 5-cyclopropyl-5-[3-[(3S)-3-methyl-4-(1-methylpyrrolo[3,2-b]pyridin-6-yl)piperazin-1-yl]-3-oxo-propyl]imidazolidine-2,4-dione], the IC50 is 764 nM at human ADAMTS-5 and greater than 20000 nM at human TACE.

Take `C[C@H]1CN(C(=O)CCC2(C3CC3)NC(=O)NC2=O)CCN1c1cc(F)cc(-c2cn[nH]c2)c1` (stereo partly drawn) [compound 338, 5-cyclopropyl-5-[3-[(3S)-4-[3-fluoro-5-(1H-pyrazol-4-yl)phenyl]-3-methyl-piperazin-1-yl]-3-oxo-propyl]imidazolidine-2,4-dione]: the IC50 was 60 nM on human ADAMTS-5 and greater than 4000 nM at human TACE.

For the molecule `C[C@H]1CN(C(=O)CCC2(C3CC3)NC(=O)NC2=O)CCN1c1ccc(F)c(-c2cn[nH]c2)c1` (stereo partly drawn) [compound 340, 5-cyclopropyl-5-[3-[(3S)-4-[4-fluoro-3-(1H-pyrazol-4-yl)phenyl]-3-methyl-piperazin-1-yl]-3-oxo-propyl]imidazolidine-2,4-dione], the IC50 on human ADAMTS-5 is 155 nM; on human TACE it was greater than 4000 nM.

`C[C@H]1CN(C(=O)CCC2(C3CC3)NC(=O)NC2=O)CCN1c1ccc2cnn(C)c2c1` (stereo partly drawn) [compound 341, 5-cyclopropyl-5-[3-[(3S)-3-methyl-4-(1-methylindazol-6-yl)piperazin-1-yl]-3-oxo-propyl]imidazolidine-2,4-dione]: the IC50 at human ADAMTS-5 was 264 nM; at human TACE, 885 nM.

On to `CC(CC1(C2CC2)NC(=O)NC1=O)C(=O)N1CCN(c2ccc(F)cc2)[C@@H](C)C1` (stereo partly drawn) [compound 343, 5-cyclopropyl-5-[3-[(3S)-4-(4-fluorophenyl)-3-methyl-piperazin-1-yl]-2-methyl-3-oxo-propyl]imidazolidine-2,4-dione], for which the values for the IC50 on human ADAMTS-5 and on human TACE were 22 nM and greater than 20000 nM, respectively.

Regarding `Cc1nc(N2CCN(C(=O)CCC3(C4CC4)NC(=O)NC3=O)C[C@@H]2C)no1` (stereo partly drawn) [compound 344, 5-cyclopropyl-5-[3-[(3S)-3-methyl-4-(5-methyl-1,2,4-oxadiazol-3-yl)piperazin-1-yl]-3-oxo-propyl]imidazolidine-2,4-dione], the IC50 at human ADAMTS-5 and at human TACE was greater than 20000 nM in each case.
